# Experimental data as given in US8551984B2, “Aminopyrimidines as SYK inhibitors” (Merck Sharp & Dohme Corp., priority 2009, dated 2013).
# Target: recombinant human SYK (GST-hSYK fusion protein) (Homo sapiens, UniProt P43405)
# Test: biochemical
# [1] = rhSYK Activity (IC50), recombinant human GST-SYK 5 pM, ATP 25 μM, biotinylated substrate peptide 250 nM, HTRF, 10-dose titration
# Source text: Homogeneous Time-Resolved Fluorescence (HTRF) Assay for the Recombinant Human SYK Enzyme:
structure (smiles),measurement,setting,value
CN1CC(c2ncc(-c3cccc(Nc4nccc(C(F)(F)F)n4)c3)s2)CCC1=O (stereo not shown) [Example 21-17],IC50,"rhSYK Activity, Table 21",< 100 nM
COc1nc(Nc2cc(C)cc(-c3cnc(C(C)(C)S(N)(=O)=O)s3)c2)ncc1F [74A-8],IC50,"rhSYK Activity, Table 74A",< 100 nM
Cc1cc(Nc2nccc(C(F)(F)F)n2)cc(-c2cnc([C@]3(O)CC[C@@H](NC(=O)c4ccc(C#N)cc4)CC3)s2)c1 [Example 54E-33],IC50,"rhSYK Activity, Table 54E",< 100 nM
Nc1cc(Nc2nccc(OC3CNC3)n2)cc(-c2cnc(C3(O)CCC3)s2)c1 [Example 109-14],IC50,"rhSYK Activity, Table 109",< 100 nM
Cc1cc(Nc2nccc(C)n2)cc(-c2cnc(C3(O)CCC3)s2)c1 [Example 56-1],IC50,"rhSYK Activity, Table 56",< 100 nM
Cc1cc(Nc2nccc(C(F)(F)F)n2)cc(-c2cnc(C3(O)CCN(C(=O)[C@@H]4CCC(=O)N4)CC3)s2)c1 [Example 54A-38],IC50,"RHSYK Activity, Table 54A",< 100 nM
Cc1cc(Nc2nccc(C(F)(F)F)n2)cc(-c2cnc(CNC(CO)(CO)CO)s2)c1 [Example 88A-47],IC50,[1],< 100 nM
Cc1cc(Nc2nccc(C(F)(F)F)n2)cc(-c2cnc(C(=O)NC3(CO)CCCC3)s2)c1 [Example 87A-16],IC50,[1],1000 to 10000 nM
Cc1cc(Nc2nccc(OC3CCNCC3F)n2)cc(-c2cnc(C(C)(O)C(F)(F)F)s2)c1 (stereo not shown) [Example 94B-4],IC50,[1],< 100 nM
Cc1cc(Nc2nccc(C(F)(F)F)n2)cc(-c2cnc(CN(CCO)CCS(=O)(=O)O)s2)c1 [Example 88A-52],IC50,[1],< 100 nM
Cc1cc(Nc2nccc(C(F)(F)F)n2)cc(-c2cnc(CN(C)CC(O)CO)s2)c1 (stereo not shown) [Example 88A-28],IC50,[1],< 100 nM
"Cc1cc(Nc2nccc(C(F)(F)F)n2)cc(-c2cnc(C(C)(C)c3nnco3)s2)c1 [Example 82, N-(3-methyl-5-{2-[2-(1,3,4-oxadiazol-2-yl)propan-2-yl]-1,3-thiazol-5-yl}phenyl)-4-(trifluoromethyl)pyrimidin-2-amine]",IC50,[1],< 100 nM
"CCOP(=O)(OCC)[C@]1(O)CC[C@@](O)(c2ncc(-c3cc(C)cc(Nc4nccc(C(F)(F)F)n4)c3)s2)CC1 [Example 155(A), Diethyl{cis-1,4-dihydroxy-4-[5-(3-methyl-5-{[4-(trifluoromethyl)pyrimidin-2-yl]amino}phenyl)-1,3-thiazol-2-yl]cyclohexyl}phosphonate]",IC50,[1],< 100 nM
COc1nc(Nc2cc(C)cc(-c3cnc(C4(O)CCC(C(=O)O)CC4)s3)c2)ncc1Cl (stereo not shown) [116A-8],IC50,"rhSYK Activity, Table 116A",< 100 nM
Cc1cc(Nc2nccc(C(F)(F)F)n2)cc(-c2cnc(CCc3nnc(C4CC4)o3)s2)c1 [Example 79-9],IC50,[1],< 100 nM
COC(=O)C1CCC(O)(c2ncc(-c3cc(C)cc(Nc4nccc(C)n4)c3)s2)CC1C (stereo not shown) [Example 113A-10],IC50,"rhSYK Activity, Table 113A",< 100 nM
Cc1cc(Nc2ncc(F)c(O)n2)cc(-c2cnc(C3(O)CCC(C(=O)O)C(C)(C)C3)s2)c1 (stereo not shown) [116A-23],IC50,"rhSYK Activity, Table 116A",100 to 1000 nM
Cc1cc(Nc2nccc(C(F)(F)F)n2)cc(-c2cnc(C3(O)CCN(CC(N)=O)C3)s2)c1 (stereo not shown) [54B-20],IC50,"rhSYK Activity, Table 54B",< 100 nM
"Cc1cc(Nc2nccc(OCCO)n2)cc(-c2cnc(C(O)(CO)CO)s2)c1 [Example 158, 2-[5-(3-{[4-(2-hydroxyethoxy)pyrimidin-2-yl]amino}-5-methylphenyl)-1,3-thiazol-2-yl]propane-1,2,3-triol]",IC50,[1],< 100 nM
CS(=O)(=O)Cc1ncc(-c2cccc(Nc3nccc(C(F)(F)F)n3)c2)s1 [Example 21-3],IC50,"rhSYK Activity, Table 21",< 100 nM
COc1ccnc(Nc2cc(C)cc(-c3cnc([C@@]4(O)CC[C@H](C(=O)O)[C@H](C)C4)s3)c2)n1 [Example 113A-16],IC50,"rhSYK Activity, Table 113A",< 100 nM
Cc1cc(Nc2nccc(C(F)(F)C(F)(F)F)n2)cc(-c2cnc(C3(O)CCC(C(=O)O)CC3)s2)c1 (stereo not shown) [116A-13],IC50,"rhSYK Activity, Table 116A",< 100 nM
Cc1cc(Nc2nccc(-c3cccs3)n2)cc(-c2cnc(C3(O)CCC(C(=O)OC(C)(C)C)CC3)s2)c1 (stereo not shown) [116A-15],IC50,"rhSYK Activity, Table 116A",100 to 1000 nM
Cc1cc(Nc2nccc(C(F)F)n2)cc(-c2cnc([C@@]3(O)CC[C@H](C(=O)O)C(C)(C)C3)s2)c1 [116A-30],IC50,"rhSYK Activity, Table 116A",< 100 nM
Cc1cc(Nc2nccc(C(F)(F)F)n2)cc(-c2cnc(C3(O)CCCN(S(=O)(=O)O)CC3)s2)c1 (stereo not shown) [Example 54D-118],IC50,"rhSYK Activity, Table 54D",< 100 nM
COC(=O)C(=O)N1CCC(O)(c2ncc(-c3cc(C)cc(Nc4nccc(C(F)(F)F)n4)c3)s2)C1 (stereo not shown) [54B-27],IC50,"rhSYK Activity, Table 54B",< 100 nM
Cc1cc(Nc2nccc(C(F)(F)F)n2)cc(-c2cnc(C3=CC(=O)CC3)s2)c1 [Example 36A-6],IC50,"rhSYK Activity, Table 36A",< 100 nM
Cc1cc(Nc2nccc(C)n2)cc(-c2cnc(C(C)(C)S(N)(=O)=O)s2)c1 [74A-12],IC50,"rhSYK Activity, Table 74A",< 100 nM
Cc1cc(Nc2nccc(C(F)(F)F)n2)cc(-c2cnc(-c3cnn(CC(C)(C)O)c3)s2)c1 [Example 115-5],IC50,"rhSYK Activity, Table 115",< 100 nM
Cc1cc(Nc2nccc(OCC3CN(C)CCN3C)n2)cc(-c2cnc(C3(O)CCC3)s2)c1 (stereo not shown) [Example 108A-20],IC50,"rhSYK Activity, Table 108A",< 100 nM
Cc1cc(Nc2nccc(C(F)(F)F)n2)cc(-c2cnc(C3(O)CCN(C(=O)CCc4cn[nH]c4)CC3)s2)c1 [Example 54A-50],IC50,"RHSYK Activity, Table 54A",< 100 nM
Cc1cc(Nc2nccc(C(F)(F)F)n2)cc(-c2cnc(C3=CC(=O)CCCC3)s2)c1 [Example 36A-9],IC50,"rhSYK Activity, Table 36A",< 100 nM
Cc1cc(Nc2nccc(C(F)(F)F)n2)cc(-c2cnc(C3(O)CCCN(C(=O)c4cc(C)on4)CC3)s2)c1 (stereo not shown) [Example 54D-48],IC50,"rhSYK Activity, Table 54D",< 100 nM
Cc1cc(Nc2nccc(C(F)(F)F)n2)cc(-c2cnc(C(C)(C)N)s2)c1 [61A-3],IC50,"rhSYK Activity, Table 61A",< 100 nM
COCC1CN(Cc2ncc(-c3cc(C)cc(Nc4nccc(C(F)(F)F)n4)c3)s2)CCO1 (stereo not shown) [Example 88B-13],IC50,[1],< 100 nM
Cc1cc(Nc2nccc(C(C)(C)O)n2)cc(-c2cnc(C3(O)CCC(C(=O)O)C(C)(C)C3)s2)c1 (stereo not shown) [Example 100A-17],IC50,[1],< 100 nM
Cc1cnc(Nc2cc(C)cc(-c3cnc(C(C)(O)C(F)(F)F)s3)c2)nc1 (stereo not shown) [Example 100],IC50,[1],< 100 nM
Cc1cc(Nc2nccc(C(F)(F)F)n2)cc(-c2cnc(C3(O)CCCN(C(=O)Cc4cccnc4)CC3)s2)c1 (stereo not shown) [Example 54D-81],IC50,"rhSYK Activity, Table 54D",< 100 nM
COCCCOc1ccnc(Nc2cc(C)cc(-c3cnc(C4(O)CCC4)s3)c2)n1 [Example 94A-12],IC50,[1],< 100 nM
Cc1cc(Nc2nccc(C(F)(F)F)n2)cc(-c2cnc(C(=O)NC(C)CO)s2)c1 (stereo not shown) [Example 87A-8],IC50,[1],< 100 nM
"Cc1cc(Nc2nccc(C(F)C3CC3)n2)cc(-c2cnc(C3(O)CCC(C(=O)O)C(C)(C)C3)s2)c1 (single isomer, unassigned) [Example 100A-21]",IC50,[1],< 100 nM
Cc1cc(Nc2nccc(C(F)(F)F)n2)cc(-c2cnc(CNCCCCO)s2)c1 [Example 88A-20],IC50,[1],< 100 nM
Cc1cc(Nc2nccc(C(F)(F)F)n2)cc(-c2cnc(C3(O)CCN(C(=O)[C@@H](C)O)CC3)s2)c1 [Example 54A-21],IC50,"RHSYK Activity, Table 54A",< 100 nM
Cc1cc(Nc2nccc(C(F)(F)F)n2)cc(-c2cnc(C(=O)N3CC[C@H](CO)C3)s2)c1 [Example 87B-16],IC50,[1],< 100 nM
Cc1cc(Nc2nccc(C(F)(F)F)n2)cc(-c2cnc(C3(O)CCCN(C(=O)C4CC4C(=O)O)CC3)s2)c1 (stereo not shown) [Example 54D-71],IC50,"rhSYK Activity, Table 54D",< 100 nM
Cc1cc(Nc2nccc(C(F)(F)F)n2)cc(-c2cnc(C3(O)CCN(C(=O)N(C)C)CC3)s2)c1 [Example 54A-15],IC50,"RHSYK Activity, Table 54A",< 100 nM
Cc1cc(Nc2nccc(C(F)(F)F)n2)cc(-c2cnc(C(NS(C)(=O)=O)(C3CC3)C3CC3)s2)c1 [61A-1],IC50,"rhSYK Activity, Table 61A",< 100 nM
Cc1cc(Nc2nccc(C(F)(F)F)n2)cc(-c2cnc(C(C)(O)Cc3ccc(C(=O)O)cc3)s2)c1 (stereo not shown) [Example 33D-18],IC50,"rhSYK Activity, Table 33D",< 100 nM
Cc1cc(Nc2nccc(C(F)(F)F)n2)cc(-c2cnc(C3(O)CCNC(C(F)(F)F)C3)s2)c1 (stereo not shown) [46-1],IC50,"rhSYK Activity, Table 46",< 100 nM
